Entries after “also recorded” stand apart in the source; their conditions may differ. Counter-ions that a name gives are not always drawn.
How the values were obtained:
[1] = tested on: RS4-11 cells (FLT3-wild type); experiment: RS4-11 cell growth, luminescence assay at 72 hours; assay type: cell-based, human; conditions: with or without 100 ng/mL FLT3 ligand, FIGS. 5 and 6
[2] = tested on: AML193 cells (wild type FLT3); experiment: AML193 cell growth, luminescence assay at 72 hours; conditions: with or without 100 ng/mL FLT3 ligand, GN963 at concentrations used (30 μM), FIGS. 3 and 4
[3] = tested on: Mouse endothelial cells from pancreas; experiment: sensitivity of pancreas endothelial cells to Taxotere cytotoxicity; assay type: cell-based; conditions: with Taxotere
Protocol: Mouse endothelial cells from pancreas are maintained in culture at a temperature 33° C. where they are actively dividing.

[4] = target: T1, Met (Homo sapiens, UniProt P08581); experiment: recombinant kinase transphosphorylation (33P-ATP) profiling, Met; assay type: biochemical; conditions: 10 concentrations, n=1
T1 construct: host or cells: baculovirus system
Protocol: (§1) The ability of a set of protein kinases—tyrosine and serine/threonine kinases expressed in a baculovirus system—to incorporate ^33P (from ^33P-ATP) in relevant substrates, in the presence of decreasing concentrations of the inhibitor (10 concentrations from 10^−5 to 3.10^−10, n=1) was determined.

[5] = tested on: MOLM-13 cells (FLT3-ITD); experiment: MOLM-13 cell growth, luminescence assay at 72 hours; assay type: cell-based
From the text: Staurosporine, a non specific kinase inhibitor, is used as positive control.

[6] = target: T2, VEGF-R1 (Homo sapiens, UniProt P17948); experiment: recombinant kinase transphosphorylation (33P-ATP) profiling, VEGF-R1; assay type: biochemical; conditions: 10 concentrations, n=1
T2 construct: host or cells: baculovirus system
Protocol: as §1

[7] = tested on: MV4;11 cells; experiment: intravenous MV4;11 leukemia model in NOD-SCID mice; assay type: in vivo
Protocol: In a subset of animals, bone marrow cell suspensions are prepared by flushing mouse femurs with cold sterile PBS, at experimental timepoints (within 90 days of implantation).

[8] = tested on: MV4;11 or RS4;11 cells; experiment: subcutaneous MV4;11 or RS4;11 tumors in athymic nu/nu mice; assay type: in vivo; conditions: oral, daily or 3 times per week, 50-200 mg/kg, pre-existing tumors
Protocol: Animals are randomized into treatment groups of 15 mice each for efficacy studies. […] Tumor growth is measured twice weekly using Vernier calipers for the duration of the treatment. Tumor volumes are calculated as the product of length x width x height. On completion of the experiments, mice are sacrificed and tumors are harvested for determination of FLT3 and phosphorylated FLT3 in tumor lysates by immunoprecipitation and Western-blot.

[9] = target: T3, FGF-R1 (Homo sapiens, UniProt P11362); experiment: recombinant kinase transphosphorylation (33P-ATP) profiling, FGF-R1; assay type: biochemical; conditions: 10 concentrations, n=1
T3 construct: host or cells: baculovirus system
Protocol: as §1

[10] = target: T4, Abl-1 (Homo sapiens, UniProt P00519); experiment: recombinant kinase transphosphorylation (33P-ATP) profiling, Abl-1; assay type: biochemical; conditions: 10 concentrations, n=1
T4 construct: host or cells: baculovirus system
Protocol: as §1

[11] = target: T5, FGR (Homo sapiens, UniProt P09769); experiment: recombinant kinase transphosphorylation (33P-ATP) profiling, FGR; assay type: biochemical; conditions: 10 concentrations, n=1
T5 construct: host or cells: baculovirus system
Protocol: as §1

[12] = tested on: FLT3-ITD; experiment: cellular FLT3 phosphorylation, immunoprecipitation/western blot; conditions: immunoprecipitations/western blot
[13] = tested on: MAPK, P13K and STAT5 pathways; experiment: FLT3 downstream signaling phosphorylation in AML FLT3-ITD cell lines; assay type: cell-based; conditions: immunoprecipitations/western blot
[14] = tested on: MV4-11 and MOLM-13 cells; experiment: apoptosis by annexin V-FITC / propidium iodide flow cytometry; assay type: cell-based; conditions: 48 to 72 hours incubation
Protocol: Apoptosis was evaluated by means of flow cytometry to measure cellular binding of an annexin V-FITC conjugate as well as uptake of the vital stain propidium iodide.

[15] = tested on: L3.6 pL pancreatic tumor; experiment: orthotopic human pancreatic cancer L3.6 pL in nude mice; assay type: in vivo
Protocol: A pancreatic tumor which is shown to upregulate expression of PDGF AA, BB, A/B at metastatic sites is used for the in vivo studies. Other tumor systems that are known to upregulate expression of PDGF may also be used such as ovarian cancer, prostate cancer, bone metastasis, or breast cancer bone metastasis.
Tumor cells L3.6 pL derived from pancreatic cancer are injected into the pancreas of nude mice. The tumors are grown into detectable lesions.
Two days later, the mice are killed and the organs with and without tumors harvested, fixed, and immunostained to evaluate expression of PDGF AA, BB, A/B, PDGF-R (α,β) and status of phosphorylation of PDGF-R (α,β) on tumor cells and organ-specific endothelial cells.
The surviving mice are then killed and the size of tumor and metastasis is measured. Fixation of the tissues and staining of the tumor cells are performed. Endothelial cells are examined for division (PCNA), apoptosis (TUNEL), CD31 (endothelial cells). Expression of PDGF AA, BB, A/B, and phosphorylation of PDGF-Rα/β are further studied in these endothelial cells.

[16] = target: T6, IGF1-R (Homo sapiens, UniProt P08069); experiment: recombinant kinase transphosphorylation (33P-ATP) profiling, IGF1-R; assay type: biochemical; conditions: 10 concentrations, n=1
T6 construct: host or cells: baculovirus system
Protocol: as §1

[17] = target: T7, VEGF-R2 (Homo sapiens, UniProt P35968); experiment: recombinant kinase transphosphorylation (33P-ATP) profiling, VEGF-R2; assay type: biochemical; conditions: 10 concentrations, n=1
T7 construct: host or cells: baculovirus system
Protocol: as §1

[18] = target: T8, Kit (Homo sapiens, UniProt P10721); experiment: recombinant kinase transphosphorylation (33P-ATP) profiling, Kit; assay type: biochemical; conditions: 10 concentrations, n=1
T8 construct: host or cells: baculovirus system

[19] = target: T9, FGF-R4 (Homo sapiens, UniProt P22455); experiment: recombinant kinase transphosphorylation (33P-ATP) profiling, FGF-R4; assay type: biochemical; conditions: 10 concentrations, n=1
T9 construct: host or cells: baculovirus system
Protocol: as §1

[20] = tested on: protein kinases belonging to families different from the tyrosine kinase family; experiment: kinase profiling, protein kinases outside the tyrosine kinase family; assay type: biochemical
[21] = target: Irak; experiment: recombinant kinase transphosphorylation (33P-ATP) profiling, Irak; assay type: biochemical; conditions: 10 concentrations, n=1
[22] = target: T10, Flt-3 (Homo sapiens, UniProt P36888); experiment: recombinant kinase transphosphorylation (33P-ATP) profiling, Flt-3; assay type: biochemical; conditions: 10 concentrations, n=1
T10 construct: host or cells: baculovirus system

[23] = target: T11, Src (Homo sapiens, UniProt P12931); experiment: recombinant kinase transphosphorylation (33P-ATP) profiling, Src; assay type: biochemical; conditions: 10 concentrations, n=1
T11 construct: host or cells: baculovirus system

[24] = target: T12, Eph-B4 (Homo sapiens, UniProt P54760); experiment: recombinant kinase transphosphorylation (33P-ATP) profiling, Eph-B4; assay type: biochemical; conditions: 10 concentrations, n=1
T12 construct: host or cells: baculovirus system
Protocol: as §1

[25] = tested on: MV4-11 cells (FLT3-ITD); experiment: MV4-11 cell growth, luminescence assay at 72 hours; assay type: cell-based, human
From the text: Staurosporine, a non specific kinase inhibitor, was used as positive control.

[26] = target: T13, Lck (Homo sapiens, UniProt P06239); experiment: recombinant kinase transphosphorylation (33P-ATP) profiling, Lck; assay type: biochemical; conditions: 10 concentrations, n=1
T13 construct: host or cells: baculovirus system

[27] = target: T14, EGF-R (Homo sapiens, UniProt P00533); experiment: recombinant kinase transphosphorylation (33P-ATP) profiling, EGF-R; assay type: biochemical; conditions: 10 concentrations, n=1
T14 construct: host or cells: baculovirus system

[28] = target: T15, PDGFRb (Homo sapiens, UniProt P09619); experiment: recombinant kinase transphosphorylation (33P-ATP) profiling, PDGFRb; assay type: biochemical; conditions: 10 concentrations, n=1
T15 construct: host or cells: baculovirus system

[29] = target: T16, PDGFRa (Homo sapiens, UniProt P16234); experiment: recombinant kinase transphosphorylation (33P-ATP) profiling, PDGFRa; assay type: biochemical; conditions: 10 concentrations, n=1
T16 construct: host or cells: baculovirus system

[30] = target: T17, Ins-R (Homo sapiens, UniProt P06213); experiment: recombinant kinase transphosphorylation (33P-ATP) profiling, Ins-R; assay type: biochemical; conditions: 10 concentrations, n=1
T17 construct: host or cells: baculovirus system

[31] = target: T18, Brk (Homo sapiens, UniProt Q13882); experiment: recombinant kinase transphosphorylation (33P-ATP) profiling, Brk; assay type: biochemical; conditions: 10 concentrations, n=1
T18 construct: host or cells: baculovirus system
Protocol: as §1

T6 sequence (P08069 31-1367): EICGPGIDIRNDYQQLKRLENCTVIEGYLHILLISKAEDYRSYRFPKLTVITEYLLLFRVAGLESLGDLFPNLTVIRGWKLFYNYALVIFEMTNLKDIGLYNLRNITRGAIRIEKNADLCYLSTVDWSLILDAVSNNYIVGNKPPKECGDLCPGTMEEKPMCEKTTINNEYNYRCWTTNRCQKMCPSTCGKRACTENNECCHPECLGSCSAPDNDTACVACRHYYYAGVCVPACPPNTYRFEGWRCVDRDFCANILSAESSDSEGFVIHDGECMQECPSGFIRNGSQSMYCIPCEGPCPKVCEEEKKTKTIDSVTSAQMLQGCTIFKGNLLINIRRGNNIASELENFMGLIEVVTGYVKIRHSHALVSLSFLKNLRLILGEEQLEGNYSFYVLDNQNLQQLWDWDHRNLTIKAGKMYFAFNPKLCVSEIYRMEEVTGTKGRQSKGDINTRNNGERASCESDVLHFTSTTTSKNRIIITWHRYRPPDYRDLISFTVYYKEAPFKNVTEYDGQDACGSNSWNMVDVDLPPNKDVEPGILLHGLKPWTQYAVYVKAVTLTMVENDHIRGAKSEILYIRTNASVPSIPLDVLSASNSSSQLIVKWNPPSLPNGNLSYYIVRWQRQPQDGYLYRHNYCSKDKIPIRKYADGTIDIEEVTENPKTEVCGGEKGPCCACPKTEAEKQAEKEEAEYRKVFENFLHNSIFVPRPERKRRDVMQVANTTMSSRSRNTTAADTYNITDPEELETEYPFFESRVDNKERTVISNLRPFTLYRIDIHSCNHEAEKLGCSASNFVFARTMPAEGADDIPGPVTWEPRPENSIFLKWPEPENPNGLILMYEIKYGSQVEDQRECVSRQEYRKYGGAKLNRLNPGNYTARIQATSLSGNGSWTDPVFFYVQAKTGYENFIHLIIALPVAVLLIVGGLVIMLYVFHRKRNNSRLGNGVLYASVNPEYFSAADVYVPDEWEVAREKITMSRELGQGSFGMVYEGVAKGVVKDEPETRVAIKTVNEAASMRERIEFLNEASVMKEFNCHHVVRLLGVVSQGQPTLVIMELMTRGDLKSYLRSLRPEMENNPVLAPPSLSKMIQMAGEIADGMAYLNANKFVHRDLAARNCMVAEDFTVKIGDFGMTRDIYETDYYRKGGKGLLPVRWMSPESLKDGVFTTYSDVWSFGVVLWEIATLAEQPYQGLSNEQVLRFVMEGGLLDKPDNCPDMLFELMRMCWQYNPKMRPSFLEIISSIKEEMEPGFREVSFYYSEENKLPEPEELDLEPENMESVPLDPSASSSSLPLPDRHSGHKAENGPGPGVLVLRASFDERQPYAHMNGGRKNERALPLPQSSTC
T9 sequence (P22455 22-802): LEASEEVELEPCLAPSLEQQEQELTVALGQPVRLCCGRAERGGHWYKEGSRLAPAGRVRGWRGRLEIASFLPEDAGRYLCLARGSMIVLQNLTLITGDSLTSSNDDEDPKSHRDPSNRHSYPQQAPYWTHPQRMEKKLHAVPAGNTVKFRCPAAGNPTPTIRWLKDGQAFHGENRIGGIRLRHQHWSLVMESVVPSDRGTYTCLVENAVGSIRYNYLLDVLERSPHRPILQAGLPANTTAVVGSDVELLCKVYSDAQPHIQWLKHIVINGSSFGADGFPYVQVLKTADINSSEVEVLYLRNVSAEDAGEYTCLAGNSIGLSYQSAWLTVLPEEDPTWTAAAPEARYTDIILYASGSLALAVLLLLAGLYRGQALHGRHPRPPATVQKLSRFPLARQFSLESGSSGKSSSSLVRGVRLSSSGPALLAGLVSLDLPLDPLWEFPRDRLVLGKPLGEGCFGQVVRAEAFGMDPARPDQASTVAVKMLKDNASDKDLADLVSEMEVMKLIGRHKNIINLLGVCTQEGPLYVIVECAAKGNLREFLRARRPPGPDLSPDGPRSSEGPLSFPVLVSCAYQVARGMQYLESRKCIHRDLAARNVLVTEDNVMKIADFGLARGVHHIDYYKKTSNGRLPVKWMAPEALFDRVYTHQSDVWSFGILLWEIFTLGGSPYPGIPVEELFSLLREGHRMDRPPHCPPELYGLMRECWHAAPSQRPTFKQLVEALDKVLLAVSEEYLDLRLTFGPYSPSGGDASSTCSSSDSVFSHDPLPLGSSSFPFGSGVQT
T1 sequence (P08581 25-1390): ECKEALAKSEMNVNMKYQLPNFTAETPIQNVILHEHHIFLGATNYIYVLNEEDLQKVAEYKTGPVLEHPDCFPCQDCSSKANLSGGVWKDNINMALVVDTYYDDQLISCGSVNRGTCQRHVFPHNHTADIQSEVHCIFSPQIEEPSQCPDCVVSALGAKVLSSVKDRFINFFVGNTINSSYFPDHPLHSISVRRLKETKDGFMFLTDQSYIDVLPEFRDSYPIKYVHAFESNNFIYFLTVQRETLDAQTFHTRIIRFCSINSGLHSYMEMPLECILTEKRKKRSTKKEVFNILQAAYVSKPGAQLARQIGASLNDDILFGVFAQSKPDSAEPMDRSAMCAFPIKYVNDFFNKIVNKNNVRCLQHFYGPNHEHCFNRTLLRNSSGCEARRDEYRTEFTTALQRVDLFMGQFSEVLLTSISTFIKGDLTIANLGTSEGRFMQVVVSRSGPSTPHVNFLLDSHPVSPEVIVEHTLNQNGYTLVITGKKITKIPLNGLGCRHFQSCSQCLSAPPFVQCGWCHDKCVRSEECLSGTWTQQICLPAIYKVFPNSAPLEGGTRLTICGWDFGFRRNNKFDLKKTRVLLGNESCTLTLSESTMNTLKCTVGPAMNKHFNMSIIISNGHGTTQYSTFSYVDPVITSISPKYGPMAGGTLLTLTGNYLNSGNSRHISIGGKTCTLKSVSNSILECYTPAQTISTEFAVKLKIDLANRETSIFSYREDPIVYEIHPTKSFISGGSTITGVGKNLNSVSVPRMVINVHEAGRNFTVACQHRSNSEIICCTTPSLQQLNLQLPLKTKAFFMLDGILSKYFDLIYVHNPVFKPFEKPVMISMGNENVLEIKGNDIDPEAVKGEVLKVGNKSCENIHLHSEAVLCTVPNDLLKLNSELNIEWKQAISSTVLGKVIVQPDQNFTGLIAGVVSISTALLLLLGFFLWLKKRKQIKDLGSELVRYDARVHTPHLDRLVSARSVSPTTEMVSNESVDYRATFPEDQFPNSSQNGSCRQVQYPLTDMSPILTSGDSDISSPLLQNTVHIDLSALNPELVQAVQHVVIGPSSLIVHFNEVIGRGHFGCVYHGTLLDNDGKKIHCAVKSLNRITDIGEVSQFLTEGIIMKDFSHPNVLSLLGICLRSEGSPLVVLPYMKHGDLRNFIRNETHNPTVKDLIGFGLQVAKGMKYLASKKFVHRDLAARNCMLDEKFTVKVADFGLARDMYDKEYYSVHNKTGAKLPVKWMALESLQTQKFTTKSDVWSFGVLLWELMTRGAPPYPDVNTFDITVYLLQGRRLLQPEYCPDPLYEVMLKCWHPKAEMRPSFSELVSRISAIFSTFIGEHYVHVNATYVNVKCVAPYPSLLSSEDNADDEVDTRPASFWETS
T8 sequence (P10721 26-976): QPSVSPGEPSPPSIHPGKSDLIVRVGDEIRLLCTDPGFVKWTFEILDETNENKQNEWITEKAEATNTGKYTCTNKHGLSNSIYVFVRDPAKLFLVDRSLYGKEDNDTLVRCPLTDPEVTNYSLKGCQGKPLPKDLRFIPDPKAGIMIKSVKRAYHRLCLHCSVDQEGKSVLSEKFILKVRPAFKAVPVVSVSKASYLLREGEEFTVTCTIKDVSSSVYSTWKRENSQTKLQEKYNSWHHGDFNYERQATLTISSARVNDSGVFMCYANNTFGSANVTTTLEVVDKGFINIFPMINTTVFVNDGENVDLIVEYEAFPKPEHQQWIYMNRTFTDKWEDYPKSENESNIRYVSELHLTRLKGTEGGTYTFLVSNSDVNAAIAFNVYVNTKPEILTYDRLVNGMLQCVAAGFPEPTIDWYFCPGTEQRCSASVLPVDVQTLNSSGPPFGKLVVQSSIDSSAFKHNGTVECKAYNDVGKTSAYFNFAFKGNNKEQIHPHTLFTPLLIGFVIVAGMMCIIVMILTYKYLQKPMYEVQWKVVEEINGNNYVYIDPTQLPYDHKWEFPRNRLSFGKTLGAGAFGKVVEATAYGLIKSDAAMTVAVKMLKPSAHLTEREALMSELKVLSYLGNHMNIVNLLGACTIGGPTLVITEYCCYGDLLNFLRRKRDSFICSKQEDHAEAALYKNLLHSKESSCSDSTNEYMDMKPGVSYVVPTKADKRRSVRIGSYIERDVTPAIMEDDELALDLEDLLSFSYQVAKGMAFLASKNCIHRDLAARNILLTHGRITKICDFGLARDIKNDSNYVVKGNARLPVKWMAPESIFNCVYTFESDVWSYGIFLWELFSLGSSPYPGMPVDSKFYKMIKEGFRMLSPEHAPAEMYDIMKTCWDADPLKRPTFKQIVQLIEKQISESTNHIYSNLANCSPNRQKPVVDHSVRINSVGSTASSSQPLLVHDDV
T18 sequence (Q13882 whole entry): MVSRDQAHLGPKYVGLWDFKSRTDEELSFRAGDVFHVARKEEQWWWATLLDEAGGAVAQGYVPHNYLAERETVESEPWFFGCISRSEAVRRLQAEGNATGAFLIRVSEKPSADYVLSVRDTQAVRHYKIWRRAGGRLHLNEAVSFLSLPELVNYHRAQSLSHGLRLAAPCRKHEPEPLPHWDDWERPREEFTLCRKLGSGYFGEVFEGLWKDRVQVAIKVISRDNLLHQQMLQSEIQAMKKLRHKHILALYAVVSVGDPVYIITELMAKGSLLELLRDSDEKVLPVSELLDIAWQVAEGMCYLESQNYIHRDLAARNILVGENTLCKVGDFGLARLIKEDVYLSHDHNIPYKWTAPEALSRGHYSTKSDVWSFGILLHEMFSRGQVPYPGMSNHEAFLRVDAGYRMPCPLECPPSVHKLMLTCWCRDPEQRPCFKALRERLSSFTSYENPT

In the case of COc1cc2ncc(N[C@H]3CC[C@H](O)CC3)nc2cc1OC [GN963, trans-4-(6,7-dimethoxy-quinoxalin-2-ylamino)-cyclohexanol sulfate], the “effect on RS4-11 cell growth” value [1] is reported as “not inhibited; also recorded: no effect”, the “effect on AML193 cell growth” value [2] is reported as “not inhibited; also recorded: no effect” and the “resistance of organ-specific endothelial cells to Taxotere increased by pancreatic tumor-conditioned medium” value [3] is reported as “reversal of this increased resistance”. For the same compound, the “sensitivity of endothelial cells to cytotoxicity mediated by Taxotere” value ([3]; cells at 33° C.) was “increases sensitivity of endothelial cells to cytotoxicity mediated by Taxotere”, the IC50 [4] was over 10000 nM and the “effect on MOLM-13 cell growth” value ([5]; 72 hours, luminescence assay, FIG. 2) was “dose response effect”. The IC50 ([5]; Homo sapiens, MOLM-13, 72 h with inhibitor, Cell Titer-Glo, range stated for MV4-11 and MOLM-13 together, read-out: IC50, inhibition of cellular proliferation) was 0.7 to 2 µM, the IC50 [6] was over 10000 nM and the “large infiltrating cells with mitotic figures in bone marrow” value ([7]; H&E-stained sections, oral 50-200 mg/kg) was “reduced numbers of large infiltrating cells with mitotic figures”. The “CD45 positive cells in bone marrow” value ([7]; flow cytometry, oral 50-200 mg/kg) was “reduced numbers of CD45 positive cells”, the survival ([7]; oral, 50-200 mg/kg, once daily or 3 times per week) was “prolonged survival” and the tumor growth [8] was “efficacy against tumor growth”. For the same compound, the IC50 [9] was over 10000 nM, the IC50 [10] was 13000 nM and the IC50 [11] was 17000 nM. For the same compound, the FLT3-ITD phosphorylation [12] was “inhibited FLT3-ITD phosphorylation in a dose-dependent manner”, the “STAT5, MAPK and P13K phosphorylation” value [13] was “inhibits STAT5, MAPK and P13K phosphorylation in a dose-dependent manner” and the induction of apoptosis [14] was “induce apoptosis”. For the same compound, the survival rate ([15]; combination with Taxotere, 4-6 weeks) was “higher survival rate”, the “effect of the combination in cancer refractory to chemotherapy” value ([15]; combination with Taxotere, tumor cells resistant to Taxotere (MDR cells)) was “synergistic effect” and the “expression of phosphorylated PDGF-R on endothelial cells” value ([15]; single oral dose, organs harvested two days later) was “inhibited”. It also gave an IC50 [16] of over 10000 nM, an IC50 [17] of over 10000 nM and an IC50 [18] of 7200 nM. The IC50 [19] was over 10000 nM, the “phosphorylation mediated by protein kinases of families other than tyrosine kinases” value [20] was “did not inhibit” and the IC50 [21] was 4100 nM. For the same compound, the IC50 [22] was 1400 nM, the IC50 [23] was 3600 nM and the IC50 [24] was 7200 nM. For the same compound, the “effect on MV4-11 cell growth” value ([25]; 72 hours, luminescence assay, FIG. 1) was “inhibits MV4-11 cell growth in a dose dependent manner” and the IC50 ([25]; Homo sapiens, MV4-11, 72 h with inhibitor, Cell Titer-Glo, range stated for MV4-11 and MOLM-13 together, read-out: IC50, inhibition of cellular proliferation) was 0.7 to 2 µM.
Compound “cis-4-(6,7-dimethoxy-quinoxalin-2-ylamino)-cyclohexanol sulfate [Cis-isomer]” has an IC50 [26] of 7500 nM, an IC50 [4] of 10000 nM and an IC50 [6] of over 10000 nM. It also gave an IC50 [9] of over 10000 nM, an IC50 [27] of over 10000 nM and an IC50 [10] of 4400 nM. The IC50 [28] was 2200 nM, the IC50 [11] was 4600 nM and the IC50 [16] was over 10000 nM. It also gave an IC50 [18] of 6100 nM, an IC50 [19] of over 10000 nM and an IC50 [21] of over 10000 nM. It also gave an IC50 [22] of over 10000 nM, an IC50 [29] of 1400 nM and an IC50 [23] of 3200 nM. It also gave an IC50 [30] of over 10000 nM, an IC50 [24] of over 10000 nM and an IC50 [31] of 5700 nM.

Source: patent publication US20070197538A1, “Anti-vascular and anti-proliferation methods, therapies, and combinations employing specific tyrosine kinase inhibitors” (priority 2004, published 2007)
